This note sets out measurements from patent US20210221834A1, “SWEETENER AND SWEETENED COMPOSITIONS INCORPORATING REBAUDOSIDE N” (CARGILL, INCORPORATED, priority 2013, published 2021).

“Also recorded” adds a separate entry of the source.

Common to all, as to format: in vivo, human
Assay [1] can be described thus: Sensory evaluation of Reb A, Reb D and Reb N solutions in water (Example 2). Details: key to Bitterness: 1 = none; 2 = trace; 3 = faint; 4 = mild; 5 = moderate; 6 = definite; 7 = strong; 8 = very strong; 9 = extreme. Conditions: 500 ppm (wt/wt) in water, room temperature; for Sweetness Intensity (percent sucrose equivalent sweetness): two scientists, sucrose standards 6%, 7%, 8%; for Bitterness: intensity scale 1-9. How it is done: Solutions containing 500 ppm (wt/wt) of RebA, RebD and RebN, respectively, in water were prepared and evaluated at room temperature by two scientists with training and experience in the sensory evaluation of steviol glycosides. The samples were evaluated for sweetness intensity and other qualitative attributes. A set of sucrose standards were prepared by dissolving sugar into room temperature water (6%, 7%, 8% by weight) and used as references for sweetness intensity.

Assay [2] in a line: Sensory evaluation in citric/citrate buffer at pH 3.2 (Example 4). Details: key to Bitterness intensity: 0=none; 1=trace; 2=faint; 3=slight; 4=mild; 5=moderate; 6=definite; 7=strong; 8=very strong; 9=extreme. How it is done: Method: Solutions containing 600 ppm (wt/wt) Reb A or blends of Reb A, Reb B and Reb N in citric/citrate buffer at pH 3.2 were prepared and evaluated at room temperature by three scientists with training and experience in the sensory evaluation of steviol glycosides. The samples were evaluated for sweetness intensity and other qualitative attributes.

The nature of assay [3]: Sensory evaluation of three-way blends of reb A, reb B and reb N in water (Example 3). Conditions: 500 ppm (wt/wt) in water, room temperature. How it is done: Solutions containing 500 ppm (wt/wt) of blends of reb A, reb B, and reb N in water were prepared and evaluated at room temperature by five scientists with training and experience in the sensory evaluation of steviol glycosides. The samples were evaluated for sweetness intensity and other qualitative attributes and compared against Reb A. The results are shown in the following table: […]

Assay [4] in a line: Sensory evaluation of 4-way blend in deionized water (Example 5). Details: key to Bitterness / Licorice note: 0=none; 1=trace; 2=faint; 3=slight; 4=mild; 5=moderate; 6=definite; 7=strong; 8=very strong; 9=extreme. The conditions noted are these: 500 ppm in deionized water. How it is done:
Method: Solutions containing 500 ppm Reb A or blends of RebA, RebB, RebD and RebN were prepared in deionized water and evaluated at room temperature by three scientists with training and experience in the sensory evaluation of steviol glycosides. The samples were evaluated for sweetness intensity and other qualitative attributes.

Setting [5] is: 600 ppm (wt/wt) in citric/citrate buffer pH 3.2.

Turning to `C=C1C[C@@]23CC[C@H]4[C@@](C)(CCC[C@@]4(C)C(=O)O[C@@H]4O[C@H](CO)[C@@H](O)[C@H](O[C@@H]5O[C@H](CO)[C@@H](O)[C@H](O)[C@H]5O)[C@H]4O[C@@H]4O[C@@H](C)[C@H](O)[C@@H](O)[C@H]4O)[C@@H]2CC[C@]1(O[C@@H]1O[C@H](CO)[C@@H](O)[C@H](O[C@@H]2O[C@H](CO)[C@@H](O)[C@H](O)[C@H]2O)[C@H]1O[C@@H]1O[C@H](CO)[C@@H](O)[C@H](O)[C@H]1O)C3` [Reb N], in assay [1], the “Other Sweetness Quality” value is “rounded, and syrupy, and best”; the “Sweetness Linger” value was “moderate”; the “Sweetness Onset” value was “quick”; the “Sweetness Intensity (percent sucrose equivalent sweetness)” value worked out at 7.5% SE. This molecule returned a Bitterness in assay [1] of 1.

Consider `C=C1C[C@@]23CC[C@H]4[C@@](C)(CCC[C@@]4(C)C(=O)O[C@@H]4O[C@H](CO)[C@@H](O)[C@H](O)[C@H]4O)[C@@H]2CC[C@]1(O[C@@H]1O[C@H](CO)[C@@H](O)[C@H](O[C@@H]2O[C@H](CO)[C@@H](O)[C@H](O)[C@H]2O)[C@H]1O[C@@H]1O[C@H](CO)[C@@H](O)[C@H](O)[C@H]1O)C3` [Reb A, Rebaudioside A], for which, in assay [1], the “Other Sweetness Quality” value is reported as “spikey; also recorded: worst”, the “Sweetness Linger” value is given as “moderate”, the “Sweetness Onset” value is “slow” and the “Sweetness Intensity (percent sucrose equivalent sweetness)” value is reported as 6% SE. For the same molecule, in assay [1], the Bitterness was 5. For the same molecule, in assay [2] (setting [5]), the Bitter onset entry is given as “extremely rapid”, the Licorice result was “slight”, the Lingering bitterness entry is “strong” and the Sweet profile entry is listed as “peaky”. Moreover, the Sucrose equivalent sweetness in assay [2] (600 ppm (wt/wt) in citric/citrate buffer pH 3.2, room temperature, three scientists) was 7%. For the same molecule, in assay [2] (600 ppm (wt/wt) in citric/citrate buffer pH 3.2, intensity scale 0-9), the Bitterness intensity turned out to be 7. Also, in assay [3], the “Sweetness intensity rated by the judges” value amounted to 6.0. Also, in assay [3] (five scientists), the Bitter entry is “moderate”, the Linger entry is reported as “moderate”, the “Sweet (quality)” value is listed as “poor” and the Sweet onset entry is given as “slow”. For the same molecule, in assay [4], the Lingering bitter aftertaste entry was “moderate”. In addition, the Sucrose equivalent sweetness in assay [4] (room temperature, three scientists) is 6%. In assay [4] (intensity scale 0-9), this molecule registered a Bitterness of 6 and a Licorice note of 3.

For `C=C1C[C@@]23CC[C@H]4[C@@](C)(CCC[C@@]4(C)C(=O)O[C@@H]4O[C@H](CO)[C@@H](O)[C@H](O)[C@H]4O[C@@H]4O[C@H](CO)[C@@H](O)[C@H](O)[C@H]4O)[C@@H]2CC[C@]1(O[C@@H]1O[C@H](CO)[C@@H](O)[C@H](O[C@@H]2O[C@H](CO)[C@@H](O)[C@H](O)[C@H]2O)[C@H]1O[C@@H]1O[C@H](CO)[C@@H](O)[C@H](O)[C@H]1O)C3` [Reb D, Rebaudioside D], in assay [1], the “Other Sweetness Quality” value is “rounded, and syrupy and best”; the “Sweetness Linger” value is on record as “slight”; the “Sweetness Onset” value was “quick”; the “Sweetness Intensity (percent sucrose equivalent sweetness)” value was 7% SE. Moreover, the Bitterness in assay [1] is on record as 2.
